One experiment concerns MCF7 cells. In words: Anti-proliferation (viability) of MCF7 cells (Table 7, FIG. 2B). The note with it: Homo sapiens, MCF7, MCF7 cells, 3-6 days, 10-point serial dilution; read-out: GI IC50 in MCF-7. It is filed as cell-based.
In another experiment the target is CDK4 (Homo sapiens, UniProt P11802+Q16531). In words: HiBiT detection of HiBiT-tagged CDK4 protein level in MCF7 cells, 16 hours (Table 8). It is filed as cell-based. Also on record: expressed in transfected cells; host or cells: MCF7. The settings on record: MCF7 cells stably expressing HiBiT tagged target proteins; for activity at 0.01 µM: 10 nM, read-out: % CDK4 Relative Level (10 nM); for activity at 0.1 µM: 100 nM, read-out: % CDK4 Relative Level (100 nM). How it is done:
HiBiT detection system quantitatively measures total amounts of HiBiT-tagged proteins using a luminescent based method. MCF7 cells stably expressing HiBiT tagged target proteins were treated with heterobifunctional compounds at indicated concentrations for 16 hours, then lysed with Nano-Glo HiBiT Lytic detection reagents.

CDK4, sequence (P11802 whole entry): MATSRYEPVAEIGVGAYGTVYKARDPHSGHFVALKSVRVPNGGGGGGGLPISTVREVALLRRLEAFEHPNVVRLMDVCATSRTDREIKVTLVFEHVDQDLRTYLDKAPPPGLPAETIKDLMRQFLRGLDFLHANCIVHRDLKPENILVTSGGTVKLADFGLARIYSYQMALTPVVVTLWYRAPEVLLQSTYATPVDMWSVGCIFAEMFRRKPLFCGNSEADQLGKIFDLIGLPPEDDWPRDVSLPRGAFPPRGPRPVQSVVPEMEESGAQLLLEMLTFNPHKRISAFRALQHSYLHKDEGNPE
CDK4, sequence (P24385 whole entry partner): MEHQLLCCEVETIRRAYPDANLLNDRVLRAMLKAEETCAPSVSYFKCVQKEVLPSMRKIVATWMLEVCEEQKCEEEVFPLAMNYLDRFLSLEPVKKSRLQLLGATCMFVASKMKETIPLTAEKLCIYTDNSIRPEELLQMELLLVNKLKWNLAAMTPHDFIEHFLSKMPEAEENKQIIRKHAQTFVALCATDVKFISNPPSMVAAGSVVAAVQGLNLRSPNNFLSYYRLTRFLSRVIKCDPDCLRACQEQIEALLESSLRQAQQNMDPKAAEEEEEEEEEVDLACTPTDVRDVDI
CDK4, sequence (Q16531 2-1140 limits assumed): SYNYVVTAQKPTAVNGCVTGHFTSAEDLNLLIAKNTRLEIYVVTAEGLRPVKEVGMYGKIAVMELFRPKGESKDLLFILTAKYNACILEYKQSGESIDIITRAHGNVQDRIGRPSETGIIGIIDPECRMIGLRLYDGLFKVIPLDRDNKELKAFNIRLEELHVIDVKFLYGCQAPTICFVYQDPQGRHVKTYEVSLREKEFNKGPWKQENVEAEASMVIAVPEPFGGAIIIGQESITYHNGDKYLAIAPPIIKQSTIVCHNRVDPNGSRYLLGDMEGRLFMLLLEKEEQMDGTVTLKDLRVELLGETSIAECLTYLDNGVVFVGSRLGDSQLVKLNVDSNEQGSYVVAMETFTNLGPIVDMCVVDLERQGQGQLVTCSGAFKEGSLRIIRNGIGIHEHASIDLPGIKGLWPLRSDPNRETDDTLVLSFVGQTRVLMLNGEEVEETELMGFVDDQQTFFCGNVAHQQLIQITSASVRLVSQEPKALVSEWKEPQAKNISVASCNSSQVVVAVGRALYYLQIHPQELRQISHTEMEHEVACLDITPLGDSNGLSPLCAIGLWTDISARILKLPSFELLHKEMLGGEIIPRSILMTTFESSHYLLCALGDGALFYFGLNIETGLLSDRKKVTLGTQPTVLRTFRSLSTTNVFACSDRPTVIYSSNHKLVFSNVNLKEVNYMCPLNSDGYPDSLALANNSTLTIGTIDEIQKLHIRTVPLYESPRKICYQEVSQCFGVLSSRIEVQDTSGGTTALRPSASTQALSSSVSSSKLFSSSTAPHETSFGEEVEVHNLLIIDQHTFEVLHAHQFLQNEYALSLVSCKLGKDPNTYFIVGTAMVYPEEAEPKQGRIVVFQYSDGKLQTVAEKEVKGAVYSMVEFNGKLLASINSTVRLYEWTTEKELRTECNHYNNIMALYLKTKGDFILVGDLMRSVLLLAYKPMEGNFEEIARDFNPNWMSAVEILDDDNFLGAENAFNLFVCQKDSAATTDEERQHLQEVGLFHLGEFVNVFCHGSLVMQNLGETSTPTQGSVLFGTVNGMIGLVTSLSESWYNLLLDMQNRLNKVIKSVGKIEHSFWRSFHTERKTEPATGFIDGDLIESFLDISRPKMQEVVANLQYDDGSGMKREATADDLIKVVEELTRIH

Consider `CC(=O)c1c(C)c2cnc(Nc3ccc(N4CCN(C(C)CC(=O)N5CC6(CC(Nc7nc(NC(C)C)ccc7C(=O)Nc7ccc(N(C)C)nn7)C6)C5)CC4)cn3)nc2n(C2CCCC2)c1=O` (stereo not drawn) [CPD-368, 2-((2-(3-(4-(6-((6-acetyl-8-cyclopentyl-5-methyl-7-oxo-7,8-dihydropyrido[2,3-d]pyrimidin-2-yl)amino)pyridin-3-yl)piperazin-1-yl)butanoyl)-2-azaspiro[3.3]heptan-6-yl)amino)-N-(6-(dimethylamino)pyridazin-3-yl)-6-(isopropylamino)nicotinamide], for which, in the experiment with MCF7 cells, the half-inhibitory concentration (IC50) (commonly the concentration needed to halve the response being measured) was less than 50 nM. Moreover, at CDK4, the activity at 0.01 µM fell in the range of 55 to 85% and the activity at 0.1 µM was 55 to 85%.

`CNc1ccc(C(=O)Nc2ccc(N(C)C)nn2)c(NCCCCCCCCNC(=O)CN2CCN(c3ccc(Nc4ncc5cc6n(c5n4)C4(CCCCC4)CNC6=O)nc3)CC2)n1` [CPD-646, N-(6-(dimethylamino)pyridazin-3-yl)-6-(methylamino)-2-((8-(2-(4-(6-((6′-oxo-7′,8′-dihydro-6′H-spiro[cyclohexane-1,9′-pyrazino[1′,2′:1,5]pyrrolo[2,3-d]pyrimidin]-2′-yl)amino)pyridin-3-yl)piperazin-1-yl)acetamido)octyl)amino)nicotinamide]: in the experiment on MCF7 cells, the IC50 is greater than 100 nM. Besides, at CDK4, the activity at 0.01 µM was greater than 85% and the activity at 0.1 µM was greater than 85%.

For the molecule `CNc1ccc(C(=O)Nc2ccc(N(C)C)nn2)c(NCCOCCOCCC(=O)N2CCN(Cc3ccc(Nc4ncc(F)c(-c5cc(F)c6nc(C)n(C(C)C)c6c5)n4)nc3)CC2)n1` [CPD-607, N-(6-(dimethylamino)pyridazin-3-yl)-2-((2-(2-(3-(4-((6-((5-fluoro-4-(4-fluoro-1-isopropyl-2-methyl-1H-benzo[d]imidazol-6-yl)pyrimidin-2-yl)amino)pyridin-3-yl)methyl)piperazin-1-yl)-3-oxopropoxy)ethoxy)ethyl)amino)-6-(methylamino)nicotinamide], the IC50 with MCF7 cells is greater than 100 nM. Moreover, at CDK4, the activity at 0.01 µM is greater than 85% and the activity at 0.1 µM was greater than 85%.

For the molecule `CC(C)Nc1ccc(C(=O)Nc2ccc(N(C)C)nn2)c(NC2CC3(CC(NC(=O)CN4CCN(Cc5ccc(Nc6ncc7cc8n(c7n6)C6(CCCCC6)CNC8=O)nc5)CC4)C3)C2)n1` (stereo not drawn) [CPD-558, N-(6-(dimethylamino)pyridazin-3-yl)-6-(isopropylamino)-2-((6-(2-(4-((6-((6′-oxo-7′,8′-dihydro-6′H-spiro[cyclohexane-1,9′-pyrazino[1′,2′:1,5]pyrrolo[2,3-d]pyrimidin]-2′-yl)amino)pyridin-3-yl)methyl)piperazin-1-yl)acetamido)spiro[3.3]heptan-2-yl)amino)nicotinamide], the IC50 in the experiment on MCF7 cells was greater than 100 nM. Moreover, on CDK4, the activity at 0.01 µM is greater than 85% and the activity at 0.1 µM was greater than 85%.

With `CC(=O)c1c(C)c2cnc(Nc3ccc(N4CCC5(CC4)CC5C(=O)NC4CC5(C4)CC(Nc4nc(NC(C)C)ccc4C(=O)Nc4ccc(N(C)C)nn4)C5)cn3)nc2n(C2CCCC2)c1=O` (stereo not drawn) [CPD-414, 6-(6-((6-acetyl-8-cyclopentyl-5-methyl-7-oxo-7,8-dihydropyrido[2,3-d]pyrimidin-2-yl)amino)pyridin-3-yl)-N-(6-((3-((6-(dimethylamino)pyridazin-3-yl)carbamoyl)-6-(isopropylamino)pyridin-2-yl)amino)spiro[3.3]heptan-2-yl)-6-azaspiro[2.5]octane-1-carboxamide], the IC50 in the experiment on MCF7 cells is less than 50 nM. In addition, on CDK4, the activity at 0.01 µM lay within 55 to 85% and the activity at 0.1 µM is 55 to 85%.

With `CNc1ccc(C(=O)Nc2ccc(N(C)C)nn2)c(NCCCNC(=O)CN2CCN(c3ccc(Nc4ncc5cc(C(=O)N(C)C)n(C6CCCC6)c5n4)nc3)CC2)n1` [CPD-625, 7-cyclopentyl-2-((5-(4-(2-((3-((3-((6-(dimethylamino)pyridazin-3-yl)carbamoyl)-6-(methylamino)pyridin-2-yl)amino)propyl)amino)-2-oxoethyl)piperazin-1-yl)pyridin-2-yl)amino)-N,N-dimethyl-7H-pyrrolo[2,3-d]pyrimidine-6-carboxamide], the IC50 with MCF7 cells is greater than 100 nM. For the same molecule, on CDK4, the activity at 0.01 µM is 55 to 85% and the activity at 0.1 µM lay within 55 to 85%.

Take `CC(=O)c1c(C)c2cnc(Nc3ccc(N4CCN(C5CCN(C(=O)C67CC(Nc8nc(C(C)C)ccc8C(=O)Nc8ccc(N(C)C)nn8)(C6)C7)C5)CC4)cn3)nc2n(C2CCCC2)c1=O` (stereo not drawn) [CPD-580, 2-((3-(3-(4-(6-((6-acetyl-8-cyclopentyl-5-methyl-7-oxo-7,8-dihydropyrido[2,3-d]pyrimidin-2-yl)amino)pyridin-3-yl)piperazin-1-yl)pyrrolidine-1-carbonyl)bicyclo[1.1.1]pentan-1-yl)amino)-N-(6-(dimethylamino)pyridazin-3-yl)-6-isopropylnicotinamide]: the IC50 with MCF7 cells is less than 50 nM. In addition, at CDK4, the activity at 0.01 µM is 55 to 85% and the activity at 0.1 µM was in the range of 55 to 85%.

Consider `CC(=O)c1c(C)c2cnc(Nc3ccc(C(C)N4CCN(CC(=O)NC5CC6(C5)CC(Nc5nc(NC(C)C)ccc5C(=O)Nc5ccc(N(C)C)nn5)C6)CC4)cn3)nc2n(C2CCCC2)c1=O` (stereo not drawn) [CPD-586, 2-((6-(2-(4-(1-(6-((6-acetyl-8-cyclopentyl-5-methyl-7-oxo-7,8-dihydropyrido[2,3-d]pyrimidin-2-yl)amino)pyridin-3-yl)ethyl)piperazin-1-yl)acetamido)spiro[3.3]heptan-2-yl)amino)-N-(6-(dimethylamino)pyridazin-3-yl)-6-(isopropylamino)nicotinamide], for which the IC50 in the experiment with MCF7 cells was less than 50 nM. In addition, on CDK4, the activity at 0.01 µM lay in the range of 55 to 85% and the activity at 0.1 µM was in the range of 55 to 85%.

As for `CNc1ccc(C(=O)Nc2ccc(N(C)C)nn2)c(NCCCCCCCNC(=O)CN2CCN(c3ccc(Nc4ncc5cc(C(=O)N(C)C)n(C6CCCC6)c5n4)nc3)CC2)n1` [CPD-629, 7-cyclopentyl-2-((5-(4-(2-((7-((3-((6-(dimethylamino)pyridazin-3-yl)carbamoyl)-6-(methylamino)pyridin-2-yl)amino)heptyl)amino)-2-oxoethyl)piperazin-1-yl)pyridin-2-yl)amino)-N,N-dimethyl-7H-pyrrolo[2,3-d]pyrimidine-6-carboxamide], in the experiment on MCF7 cells, the IC50 was greater than 100 nM. Also, at CDK4, the activity at 0.01 µM is 55 to 85% and the activity at 0.1 µM lay in the range of 55 to 85%.

Take `CC(=O)c1c(C)c2cnc(Nc3ccc(N4CCC(N(C)CC(=O)N5CC6(CC(Nc7nc(NC(C)C)ccc7C(=O)Nc7ccc(N(C)C)nn7)C6)C5)CC4)cn3)nc2n(C2CCCC2)c1=O` [CPD-425, 2-((2-(N-(1-(6-((6-acetyl-8-cyclopentyl-5-methyl-7-oxo-7,8-dihydropyrido[2,3-d]pyrimidin-2-yl)amino)pyridin-3-yl)piperidin-4-yl)-N-methylglycyl)-2-azaspiro[3.3]heptan-6-yl)amino)-N-(6-(dimethylamino)pyridazin-3-yl)-6-(isopropylamino)nicotinamide]: in the experiment on MCF7 cells, the IC50 is less than 50 nM. On CDK4, the activity at 0.01 µM lay within 55 to 85% and the activity at 0.1 µM is 55 to 85%.

Take `CC(=O)c1c(C)c2cnc(Nc3ccc(N4CCN(C5CCN(C(=O)C67CC(Nc8nc(C)ccc8C(=O)Nc8ccc(N(C)C)nn8)(C6)C7)C5)CC4)cn3)nc2n(C2CCCC2)c1=O` (stereo not drawn) [CPD-590, 2-((3-(3-(4-(6-((6-acetyl-8-cyclopentyl-5-methyl-7-oxo-7,8-dihydropyrido[2,3-d]pyrimidin-2-yl)amino)pyridin-3-yl)piperazin-1-yl)pyrrolidine-1-carbonyl)bicyclo[1.1.1]pentan-1-yl)amino)-N-(6-(dimethylamino)pyridazin-3-yl)-6-methylnicotinamide]: the IC50 in the experiment on MCF7 cells is less than 50 nM. On CDK4, the activity at 0.01 µM was in the range of 55 to 85% and the activity at 0.1 µM was in the range of 55 to 85%.

Consider `CNc1ccc(C(=O)Nc2ccc(N(C)C)nn2)c(NCCNC(=O)CN2CCN(Cc3ccc(Nc4ncc(F)c(-c5cc(F)c6nc(C)n(C(C)C)c6c5)n4)nc3)CC2)n1` [CPD-608, N-(6-(dimethylamino)pyridazin-3-yl)-2-((2-(2-(4-((6-((5-fluoro-4-(4-fluoro-1-isopropyl-2-methyl-1H-benzo[d]imidazol-6-yl)pyrimidin-2-yl)amino)pyridin-3-yl)methyl)piperazin-1-yl)acetamido)ethyl)amino)-6-(methylamino)nicotinamide], for which, in the experiment on MCF7 cells, the IC50 was greater than 100 nM. For the same molecule, at CDK4, the activity at 0.01 µM was greater than 85% and the activity at 0.1 µM fell in the range of 55 to 85%.

Turning to `CC(=O)c1c(C)c2cnc(Nc3ccc(CC4CCN(CC(=O)NC5CC6(C5)CC(Nc5nc(NC(C)C)ccc5C(=O)Nc5ccc(N(C)C)nn5)C6)CC4)cn3)nc2n(C2CCCC2)c1=O` (stereo not drawn) [CPD-599, 2-((6-(2-(4-((6-((6-acetyl-8-cyclopentyl-5-methyl-7-oxo-7,8-dihydropyrido[2,3-d]pyrimidin-2-yl)amino)pyridin-3-yl)methyl)piperidin-1-yl)acetamido)spiro[3.3]heptan-2-yl)amino)-N-(6-(dimethylamino)pyridazin-3-yl)-6-(isopropylamino)nicotinamide], the IC50 with MCF7 cells is less than 50 nM. For the same molecule, at CDK4, the activity at 0.01 µM lay in the range of 55 to 85% and the activity at 0.1 µM was in the range of 55 to 85%.

For the molecule `CNc1ccc(C(=O)Nc2ccc(N(C)C)nn2)c(NCCCCCCCNC(=O)CN2CCN(c3ccc(Nc4ncc5cc6n(c5n4)C4(CCCCC4)CNC6=O)nc3)CC2)n1` [CPD-645, N-(6-(dimethylamino)pyridazin-3-yl)-6-(methylamino)-2-((7-(2-(4-(6-((6′-oxo-7′,8′-dihydro-6′H-spiro[cyclohexane-1,9′-pyrazino[1′,2′:1,5]pyrrolo[2,3-d]pyrimidin]-2′-yl)amino)pyridin-3-yl)piperazin-1-yl)acetamido)heptyl)amino)nicotinamide], the IC50 with MCF7 cells was greater than 100 nM. Besides, at CDK4, the activity at 0.01 µM was greater than 85% and the activity at 0.1 µM was greater than 85%.

Values taken from patent US20260297081A1, “COMPOUNDS AND METHODS OF TREATING CANCERS” (Cullgen Inc., priority 2023, published 2026).
